Source: paper PMC11487905, “Dalbavancin-resistant Staphylococcus epidermidis in vivo selection following a prosthetic joint infection: phenotypic and genomic characterization” (JAC-Antimicrobial Resistance, 2024)
Converted amounts (≈) assume the structure as drawn.

Tests used:
[1] = tested on: linezolid-resistant MDR S. epidermidis (LR-MDRSE) isolates; assay: microbe, parasite or virus in culture; assay type: cell-based, Staphylococcus epidermidis; conditions: for Increase of MIC between isolates: STA1 (Day 24) to STA3 (Day 240)
Protocol: Isolates were identified by MALDI-TOF mass spectrometry (VITEK MS, bioMérieux, Marcy-l’Étoile, France). Antibiotic susceptibility testing was performed using the AST-P668 bioMérieux card using a VITEK XL automated system (bioMérieux). Dalbavancin, ceftaroline, delafloxacin, tigecycline and daptomycin MICs were determined using a 0.5 McFarland bacterial inoculum on Mueller–Hinton agar plates with gradient strips (Liofilchem, Roseto degli Abruzzi, Italy) incubated for 24 h at 35°C. Interpretation of the susceptibility was made according to the EUCAST 2022 criteria.

[2] = tested on: LR-MDRSE PJI; assay type: in vivo, patient
Protocol: A person underwent a revision of a medial unicompartmental knee arthroplasty to total knee arthroplasty (TKA) for progressive arthritis of the lateral joint.
It was subsequently decided to perform debridement, antibiotics and implant retention (DAIR) with a change of modular implants. […] A treatment shift to dalbavancin 1500 mg IV on Days 35, 49, 71 and 106, combined with doxycycline 200 mg/day for 3 months was initiated.
The evolution was considered unfavourable due to a loco-regional inflammatory syndrome with persistent chronic pain.
A revision of the knee was decided upon, with five bacteriological samples collected. As previously, they tested positive with the same LR-MDRSE strain (Day 371). Ceftaroline (1800 mg/day) and doxycycline (200 mg/day) combination treatment was administered for the next 12 weeks. […] His C-reactive protein level was <4 mg/L (reference range: <4 mg/L). However, suppressive doxycycline therapy was maintained (200 mg/day).

[3] = tested on: S. aureus; conditions: seven isolates of S. aureus (including four vancomycin-intermediate strains); ref 14 (Lepak et al.); cited from earlier work
From the text: fAUC0–24/MIC best correlates with in vivo efficacy of dalbavancin.[13]

[4] = cited from earlier work
Protocol: Dalbavancin has a similar mechanism of action and spectrum as vancomycin but with increased potency, higher protein binding and an elimination half-life up to 60 times longer.[10] […] N ... || Because of the long-term duration, dalbavancin therapeutic drug monitoring was performed. Plasma trough concentrations were measured using a validated LC coupled with MS method (Acquity UPLC® BEH C18 and Acquity QDA, Waters, France). […] We therefo ... || Moreover, the clinical infections caused by biofilms poses a serious threat to public health. Staphylococcus spp. biofilms stand out as one of the most prevalent, especially in osteoarticular infection and PJI. […] Thus, new therapeutic strategies targeting biofilms and MDR bacteria are urgently needed.

[5] = Dalbavancin therapeutic drug monitoring: plasma trough concentration and extrapolated fAUC0–24/MIC; assay type: in vivo, patient; conditions: for Plasma trough concentration: 1500 mg IV, LC-MS
From the text: We therefore used this methodology for fAUC0–24 determination.

[6] = Staphylococcus epidermidis, isolate STA1, Day 24, gradient strip, 0.5 McFarland, Mueller–Hinton agar, 24 h at 35°C
[7] = Staphylococcus epidermidis, isolate STA3, Day 240, gradient strip, 0.5 McFarland, Mueller–Hinton agar, 24 h at 35°C
[8] = Staphylococcus epidermidis, 576 h
[9] = ceftaroline 1800 mg/day combined with doxycycline 200 mg/day for 12 weeks after knee revision
[10] = after four injections of dalbavancin 1500 mg IV

Nc1nc(-n2cc(C(=O)O)c(=O)c3cc(F)c(N4CC(O)C4)c(Cl)c32)c(F)cc1F [Delafloxacin]
MIC [1, 6]: 1 µg/mL (≈ 2.27 µM)
MIC [1, 7]: 8 µg/mL (≈ 18.2 µM)

CN[C@H](CC(C)C)C(=O)N[C@H]1C(=O)N[C@@H](CC(N)=O)C(=O)N[C@H]2C(=O)N[C@H]3C(=O)N[C@H](C(=O)N[C@H](C(=O)O)c4cc(O)cc(O)c4-c4cc3ccc4O)[C@H](O)c3ccc(c(Cl)c3)Oc3cc2cc(c3O[C@@H]2O[C@H](CO)[C@@H](O)[C@H](O)[C@H]2O[C@H]2C[C@](C)(N)[C@H](O)[C@H](C)O2)Oc2ccc(cc2Cl)[C@H]1O [Vancomycin]
Increase of MIC between isolates [1]: > 5 fold

CC(=O)O[C@H]1C[C@@]2(C)[C@@H](C[C@@H](O)[C@H]3[C@@]4(C)CC[C@@H](O)[C@@H](C)[C@@H]4CC[C@@]32C)/C1=C(\CCC=C(C)C)C(=O)O [Fusidic acid]
MIC ([1]; Staphylococcus epidermidis): > 4 µg/mL
MIC [1, 8]: > 4 µg/mL

CNC(C)C1CCC(N)C(OC2C(N)CC(N)C(OC3OCC(C)(O)C(NC)C3O)C2O)O1 (centres unmarked) [Gentamicin]
MIC ([1]; Staphylococcus epidermidis): > 8 µg/mL
MIC [1, 8]: > 8 µg/mL

CC[C@H]1OC(=O)[C@H](C)[C@@H](O[C@H]2C[C@@](C)(OC)[C@@H](O)[C@H](C)O2)[C@H](C)[C@@H](O[C@@H]2O[C@H](C)C[C@H](N(C)C)[C@H]2O)[C@](C)(O)C[C@@H](C)C(=O)[C@H](C)[C@@H](O)[C@]1(C)O [Erythromycin]
MIC ([1]; Staphylococcus epidermidis): > 4 µg/mL
MIC [1, 8]: > 4 µg/mL

Cc1onc(-c2ccccc2)c1C(=O)N[C@@H]1C(=O)N2[C@@H]1SC(C)(C)[C@@H]2C(=O)O [Oxacillin]
MIC ([1]; Staphylococcus epidermidis): > 2 µg/mL
MIC [1, 8]: > 2 µg/mL

CCO/N=C(\C(=O)N[C@@H]1C(=O)N2C(C(=O)[O-])=C(Sc3nc(-c4cc[n+](C)cc4)cs3)CS[C@H]12)c1nsc(N)n1 [Ceftaroline]
Susceptibility of the strain (in words) ([1]; STA1, Day 24): susceptible
Susceptibility of the strain (in words) ([1]; STA3, Day 240): susceptible
MIC [1, 6]: 1 µg/mL (≈ 1.65 µM)
MIC [1, 7]: 0.75 µg/mL (≈ 1.24 µM)
Clinical evolution under treatment [2, 9]: favourable
Tolerability of treatment [2, 9]: well tolerated

C[C@@H]1O[C@@H]1P(=O)(O)O [Fosfomycin]
MIC ([1]; Staphylococcus epidermidis): > 64 µg/mL
MIC [1, 8]: > 64 µg/mL

CC1COc2c(N3CCN(C)CC3)c(F)cc3c(=O)c(C(=O)O)cn1c23 (centres unmarked) [Ofloxacin]
MIC ([1]; Staphylococcus epidermidis): > 4 µg/mL
MIC [1, 8]: > 4 µg/mL

NC[C@H]1O[C@H](O[C@H]2[C@H](O)[C@@H](O[C@H]3O[C@H](CO)[C@@H](O)[C@H](N)[C@H]3O)[C@H](N)C[C@@H]2N)[C@H](N)C[C@@H]1O [Tobramycin]
MIC ([1]; Staphylococcus epidermidis): > 8 µg/mL
MIC [1, 8]: > 8 µg/mL

CCC[C@@H]1C[C@@H](C(=O)N[C@@H]([C@H]2O[C@H](SC)[C@H](O)[C@@H](O)[C@H]2O)[C@@H](C)O)N(C)C1 [Lincomycin]
MIC ([1]; Staphylococcus epidermidis): > 8 µg/mL
MIC [1, 8]: > 8 µg/mL

CN(C)c1cc(NC(=O)CNC(C)(C)C)c(O)c2c1C[C@H]1C[C@H]3[C@H](N(C)C)C(O)=C(C(N)=O)C(=O)[C@@]3(O)C(O)=C1C2=O [Tigecycline]
MIC [1, 6]: 0.19 µg/mL (≈ 0.324 µM)
MIC [1, 7]: 0.25 µg/mL (≈ 0.427 µM)

CN[C@H]1C(=O)N[C@@H]2Cc3ccc(cc3)Oc3cc4cc(c3O[C@@H]3O[C@H](C(=O)O)[C@@H](O)[C@H](O)[C@H]3NC(=O)CCCCCCCCC(C)C)Oc3ccc(cc3Cl)[C@@H](O)[C@@H]3NC(=O)[C@H](NC(=O)[C@@H]4NC(=O)[C@@H](NC2=O)c2cc(cc(O)c2Cl)Oc2cc1ccc2O)c1ccc(O)c(c1)-c1c(O[C@H]2O[C@H](CO)[C@@H](O)[C@H](O)[C@@H]2O)cc(O)cc1[C@@H](C(=O)NCCCN(C)C)NC3=O [Dalbavancin]
Increase of MIC between isolates [1, 10]: 4 fold
Susceptibility of the strain (in words) ([1]; STA1, Day 24): susceptible
Susceptibility of the strain (in words) ([1]; STA3, Day 240): resistant
MIC ([1]; isolate STA1, Day 24, gradient strip, 0.5 McFarland, Mueller–Hinton agar, 24 h at 35°C): 0.032 µg/mL (≈ 0.0176 µM)
MIC ([1]; isolate STA3, Day 240, gradient strip, 0.5 McFarland, Mueller–Hinton agar, 24 h at 35°C): 0.5 µg/mL (≈ 0.275 µM)
Clinical outcome of treatment ([2]; dalbavancin 1500 mg IV on Days 35, 49, 71 and 106, combined with doxycycline 200 mg/day for 3 months, after DAIR): treatment failure
fAUC0–24/MIC value for 1-log kill [3]: 53.3
fAUC0–24/MIC value for 2-log kill [3]: 111.1
fAUC0–24/MIC value for net stasis [3]: 27.1
Elimination half-life relative to vancomycin [4]: up to 60 times longer
Bound to plasma proteins ([4]; plasma): 93%
Half-life ([4]; prolonged half-life): about 14 days
Plasma trough concentration ([5]; Day 49, 14 days after the last dose): 18 mg/L
Calculated fAUC0–24/MIC ratio ([5]; Day 49, assuming an MIC of 0.032 mg/L, extrapolated from single trough, 93% protein bound): 945
Calculated fAUC0–24/MIC ratio ([5]; Day 49, assuming an MIC of 0.5 mg/L): 60
Plasma trough concentration ([5]; Day 71, 22 days after the last dose): 23.6 mg/L
Calculated fAUC0–24/MIC ratio ([5]; Day 71, assuming an MIC of 0.032 mg/L): 1239
Calculated fAUC0–24/MIC ratio ([5]; Day 71, assuming an MIC of 0.5 mg/L): 79
Plasma trough concentration ([5]; Day 106, 35 days after the last dose): 14.6 mg/L
Calculated fAUC0–24/MIC ratio ([5]; Day 106, assuming an MIC of 0.032 mg/L): 766.5
Calculated fAUC0–24/MIC ratio ([5]; Day 106, assuming an MIC of 0.5 mg/L): 49

COc1cccc(OC)c1C(=O)N[C@@H]1C(=O)N2[C@@H]1SC(C)(C)[C@@H]2C(=O)O [methicillin]
Susceptibility of the strain (in words) ([1]; STA1, Day 24): resistant

CC(=O)NC[C@H]1CN(c2ccc(N3CCOCC3)c(F)c2)C(=O)O1 [Linezolid]
Susceptibility of the strain (in words) ([1]; STA1, Day 24): resistant
MIC ([1]; Staphylococcus epidermidis): > 4 µg/mL
MIC [1, 8]: > 4 µg/mL

CCCCCCCCCC(=O)N[C@@H](Cc1c[nH]c2ccccc12)C(=O)N[C@H](CC(N)=O)C(=O)N[C@@H](CC(=O)O)C(=O)N[C@@H]1C(=O)NCC(=O)N[C@@H](CCCN)C(=O)N[C@@H](CC(=O)O)C(=O)N[C@H](C)C(=O)N[C@@H](CC(=O)O)C(=O)NCC(=O)N[C@H](CO)C(=O)N[C@@H]([C@H](C)CC(=O)O)C(=O)N[C@@H](CC(=O)c2ccccc2N)C(=O)O[C@@H]1C [Daptomycin]
Increase of MIC between isolates [1, 10]: 6 fold

CO[C@H]1/C=C/O[C@@]2(C)Oc3c(C)c(O)c4c(O)c(c(/C=N/N5CCN(C)CC5)c(O)c4c3C2=O)NC(=O)/C(C)=C\C=C\[C@H](C)[C@H](O)[C@@H](C)[C@@H](O)[C@@H](C)[C@H](OC(C)=O)[C@@H]1C [Rifampin]
Susceptibility of the strain (in words) ([1]; STA1, Day 24): resistant
MIC ([1]; Staphylococcus epidermidis): > 2 µg/mL
MIC [1, 8]: > 2 µg/mL
